Test results published in ChEMBL document CHEMBL1649267, “Molecular epidemiology and mechanisms of carbapenem resistance in Pseudomonas aeruginosa” (2009).

Columns and labels:
Pseudomonas aeruginosa [1] = type: functional; settings: isolate Paebeta-24
Pseudomonas aeruginosa [2] = type: functional; settings: isolate Paebeta-25
Pseudomonas aeruginosa [3] = type: functional; settings: isolate Paebeta-27
Pseudomonas aeruginosa [4] = type: functional; settings: isolate Paebeta-28
Pseudomonas aeruginosa [5] = type: functional; settings: isolate Paebeta-29
Pseudomonas aeruginosa [6] = type: functional; settings: isolate Paebeta-30
Pseudomonas aeruginosa [7] = type: functional; settings: isolate Paebeta-22
Pseudomonas aeruginosa [8] = type: functional; settings: isolate Paebeta-21
Pseudomonas aeruginosa [9] = type: functional; settings: isolate Paebeta-20
Pseudomonas aeruginosa [10] = type: functional; settings: isolate Paebeta-18
Pseudomonas aeruginosa [11] = type: functional; settings: isolate Paebeta-17
Pseudomonas aeruginosa [12] = type: functional; settings: isolate Paebeta-16
Pseudomonas aeruginosa [13] = type: functional; settings: isolate Paebeta-15
Pseudomonas aeruginosa [14] = type: functional; settings: isolate Paebeta-14
Pseudomonas aeruginosa [15] = type: functional; settings: isolate Paebeta-13
Pseudomonas aeruginosa [16] = type: functional; settings: isolate Paebeta-12
Pseudomonas aeruginosa [17] = type: functional; settings: isolate Paebeta-11
Pseudomonas aeruginosa [18] = type: functional; settings: isolate Paebeta-10
Pseudomonas aeruginosa [19] = type: functional; settings: isolate Paebeta-09
Pseudomonas aeruginosa [20] = type: functional; settings: isolate Paebeta-08
Pseudomonas aeruginosa [21] = type: functional; settings: isolate Paebeta-07
Pseudomonas aeruginosa [22] = type: functional; settings: isolate Paebeta-06
Pseudomonas aeruginosa [23] = type: functional; settings: isolate Paebeta-05
Pseudomonas aeruginosa [24] = type: functional; settings: isolate Paebeta-04
Pseudomonas aeruginosa [25] = type: functional; settings: isolate Paebeta-03
Pseudomonas aeruginosa [26] = type: functional; settings: isolate Paebeta-31
Pseudomonas aeruginosa [27] = type: functional; settings: isolate Paebeta-32
Pseudomonas aeruginosa [28] = type: functional; settings: isolate Paebeta-03; remark: listed apart in the source
Pseudomonas aeruginosa [29] = type: functional; settings: isolate Paebeta-04; remark: listed apart in the source
Pseudomonas aeruginosa [30] = type: functional; settings: isolate Paebeta-05; remark: listed apart in the source
Pseudomonas aeruginosa [31] = type: functional; settings: isolate Paebeta-06; remark: listed apart in the source
Pseudomonas aeruginosa [32] = type: functional; settings: isolate Paebeta-07; remark: listed apart in the source
Pseudomonas aeruginosa [33] = type: functional; settings: isolate Paebeta-08; remark: listed apart in the source
Pseudomonas aeruginosa [34] = type: functional; settings: isolate Paebeta-09; remark: listed apart in the source
Pseudomonas aeruginosa [35] = type: functional; settings: isolate Paebeta-10; remark: listed apart in the source
Pseudomonas aeruginosa [36] = type: functional; settings: isolate Paebeta-11; remark: listed apart in the source
Pseudomonas aeruginosa [37] = type: functional; settings: isolate Paebeta-13; remark: listed apart in the source
Pseudomonas aeruginosa [38] = type: functional; settings: isolate Paebeta-14; remark: listed apart in the source
Pseudomonas aeruginosa [39] = type: functional; settings: isolate Paebeta-16; remark: listed apart in the source
Pseudomonas aeruginosa [40] = type: functional; settings: isolate Paebeta-17; remark: listed apart in the source
Pseudomonas aeruginosa [41] = type: functional; settings: isolate Paebeta-18; remark: listed apart in the source
Pseudomonas aeruginosa [42] = type: functional; settings: isolate Paebeta-19
Pseudomonas aeruginosa [43] = type: functional; settings: isolate Paebeta-20; remark: listed apart in the source
Pseudomonas aeruginosa [44] = type: functional; settings: isolate Paebeta-21; remark: listed apart in the source
Pseudomonas aeruginosa [45] = type: functional; settings: isolate Paebeta-22; remark: listed apart in the source
Pseudomonas aeruginosa [46] = type: functional; settings: isolate Paebeta-23
Pseudomonas aeruginosa [47] = type: functional; settings: isolate Paebeta-24; remark: listed apart in the source
Pseudomonas aeruginosa [48] = type: functional; settings: isolate Paebeta-25; remark: listed apart in the source
Pseudomonas aeruginosa [49] = type: functional; settings: isolate Paebeta-26
Pseudomonas aeruginosa [50] = type: functional; settings: isolate Paebeta-27; remark: listed apart in the source
Pseudomonas aeruginosa [51] = type: functional; settings: isolate Paebeta-28; remark: listed apart in the source
Pseudomonas aeruginosa [52] = type: functional; settings: isolate Paebeta-29; remark: listed apart in the source
Pseudomonas aeruginosa [53] = type: functional; settings: isolate Paebeta-30; remark: listed apart in the source
Pseudomonas aeruginosa [54] = type: functional; settings: isolate Paebeta-31; remark: listed apart in the source
Pseudomonas aeruginosa [55] = type: functional; settings: isolate Paebeta-32; remark: listed apart in the source
Pseudomonas aeruginosa [56] = type: functional; settings: isolate Paebeta-23; remark: listed apart in the source
Pseudomonas aeruginosa [57] = test: microbe, parasite or virus in culture; settings: isolate Paebeta-12
Description: Antibacterial activity against mexB, mexY and mexD expressing Pseudomonas aeruginosa isolate Paebeta-12 harboring A residue at 105 position in PDC- 2 and polymorphic OprD gene by Etest method in presence of cloxacillin

Pseudomonas aeruginosa [58] = type: functional; settings: isolate Paebeta-26; remark: listed apart in the source
Pseudomonas aeruginosa [59] = type: functional; settings: isolate Paebeta-19; remark: listed apart in the source
Pseudomonas aeruginosa [60] = type: functional; settings: isolate Paebeta-02
Pseudomonas aeruginosa [61] = type: functional; settings: isolate Paebeta-01
Pseudomonas aeruginosa [62] = type: functional; settings: isolate Paebeta-01; remark: listed apart in the source
Pseudomonas aeruginosa [63] = type: functional; settings: isolate Paebeta-02; remark: listed apart in the source
Pseudomonas aeruginosa [64] = type: functional; settings: isolate Paebeta-15; remark: listed apart in the source

Measured: MIC

C[C@@H](O)[C@H]1C(=O)N2C(C(=O)O)=C(SCCNC=N)C[C@H]12 [IMIPENEM ANHYDROUS]
0.5 µg/mL: Pseudomonas aeruginosa [37] | Pseudomonas aeruginosa [45]
32 µg/mL: Pseudomonas aeruginosa [1] | Pseudomonas aeruginosa [3] | Pseudomonas aeruginosa [11] | Pseudomonas aeruginosa [12] | Pseudomonas aeruginosa [56]
8 µg/mL: Pseudomonas aeruginosa [2] | Pseudomonas aeruginosa [6] | Pseudomonas aeruginosa [7] | Pseudomonas aeruginosa [40] | Pseudomonas aeruginosa [46] | Pseudomonas aeruginosa [47] | Pseudomonas aeruginosa [48] | Pseudomonas aeruginosa [53]
64 µg/mL: Pseudomonas aeruginosa [10] | Pseudomonas aeruginosa [27]
2 µg/mL: Pseudomonas aeruginosa [28] | Pseudomonas aeruginosa [31] | Pseudomonas aeruginosa [32] | Pseudomonas aeruginosa [33] | Pseudomonas aeruginosa [34] | Pseudomonas aeruginosa [35] | Pseudomonas aeruginosa [36] | Pseudomonas aeruginosa [38] | Pseudomonas aeruginosa [44]
1 µg/mL: Pseudomonas aeruginosa [57]
4 µg/mL: Pseudomonas aeruginosa [29] | Pseudomonas aeruginosa [39] | Pseudomonas aeruginosa [42] | Pseudomonas aeruginosa [43] | Pseudomonas aeruginosa [49] | Pseudomonas aeruginosa [51]
not listed: Pseudomonas aeruginosa [58] | Pseudomonas aeruginosa [59] | Pseudomonas aeruginosa [60] | Pseudomonas aeruginosa [61] | Pseudomonas aeruginosa [62] | Pseudomonas aeruginosa [63] | Pseudomonas aeruginosa [64]
16 µg/mL: all other assays above

C[C@@H](O)[C@H]1C(=O)N2C(C(=O)O)=C(S[C@@H]3CN[C@H](C(=O)N(C)C)C3)[C@H](C)[C@H]12 [MEROPENEM]
4 µg/mL: Pseudomonas aeruginosa [58] | Pseudomonas aeruginosa [4] | Pseudomonas aeruginosa [7] | Pseudomonas aeruginosa [59] | Pseudomonas aeruginosa [12] | Pseudomonas aeruginosa [14] | Pseudomonas aeruginosa [60] | Pseudomonas aeruginosa [63] | Pseudomonas aeruginosa [28] | Pseudomonas aeruginosa [34] | Pseudomonas aeruginosa [35] | Pseudomonas aeruginosa [64] | Pseudomonas aeruginosa [40] | Pseudomonas aeruginosa [42] | Pseudomonas aeruginosa [43] | Pseudomonas aeruginosa [49] | Pseudomonas aeruginosa [51]
1 µg/mL: Pseudomonas aeruginosa [45]
2 µg/mL: Pseudomonas aeruginosa [31] | Pseudomonas aeruginosa [32] | Pseudomonas aeruginosa [33] | Pseudomonas aeruginosa [36] | Pseudomonas aeruginosa [37] | Pseudomonas aeruginosa [38] | Pseudomonas aeruginosa [39] | Pseudomonas aeruginosa [57]
32 µg/mL: Pseudomonas aeruginosa [1] | Pseudomonas aeruginosa [5] | Pseudomonas aeruginosa [8] | Pseudomonas aeruginosa [41] | Pseudomonas aeruginosa [52]
16 µg/mL: Pseudomonas aeruginosa [24] | Pseudomonas aeruginosa [27] | Pseudomonas aeruginosa [29] | Pseudomonas aeruginosa [44] | Pseudomonas aeruginosa [47] | Pseudomonas aeruginosa [56]
not listed: Pseudomonas aeruginosa [3] | Pseudomonas aeruginosa [10] | Pseudomonas aeruginosa [50]
8 µg/mL: all other assays above
